Patent publication US20230295096A1, “PYRAZOLE CARBOXAMIDE COMPOUNDS FOR TREATMENT OF HBV” (ASSEMBLY BIOSCIENCES, INC., priority 2020, published 2023)

What follows are compounds tested on HBV (assay: Viral load production from HepAD38 cells, qPCR of the HBV core sequence in supernatant). Conditions: Hepatitis B virus, HePAD38, 120 h, HepAD38 cells, 5 days, HBV DNA in supernatant by qPCR; Table 1 ranges; read-out: Activity (viral load lowering EC50).
Format: cell-based
Method in brief: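 EC50 and CC50 come from four-parameter logistic fits of supernatant HBV core DNA (TaqMan qPCR, DNA standards, compared with DMSO wells) and of CellTiter-Glo luminescence.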
COC(=O)C12CCC(C(=O)NCC3CC4CC(c5nn(C)c(N)c5C(=O)Nc5ccc(F)c(Cl)c5)CC4C3)(CC1)CC2 (stereo not shown) [Example 77, Methyl 4-(((5-(5-amino-4-((3-chloro-4-fluorophenyl)carbamoyl)-1-methyl-1H-pyrazol-3-yl)octahydropentalen-2-yl)methyl)carbamoyl)bicyclo[2.2.2]octane-1-carboxylate] was tested, and the EC50 was 50 to 500 nM. Compound Cn1nc(C2CC3CC(CNC(=O)C45CCN(CC4)CC5)CC3C2)c(C(=O)Nc2ccc(F)c(Cl)c2)c1N (stereo not shown) [Example 78, N-((5-(5-Amino-4-((3-chloro-4-fluorophenyl)carbamoyl)-1-methyl-1H-pyrazol-3-yl)octahydropentalen-2-yl)methyl)quinuclidine-4-carboxamide] has an EC50 of 50 to 500 nM. With Cn1nc(C2CC3CC(CNC(=O)C(C)(C)C4CCNCC4)CC3C2)c(C(=O)Nc2ccc(F)c(Cl)c2)c1N (stereo not shown) [Example 79, 5-Amino-N-(3-chloro-4-fluorophenyl)-1-methyl-3-(5-((2-methyl-2-(piperidin-4-yl)propanamido)methyl)octahydropentalen-2-yl)-1H-pyrazole-4-carboxamide] the EC50 was 50 to 500 nM. Work on Cn1nc(C2CC3CC(CNC(=O)C4CCNC(=O)C4)CC3C2)c(C(=O)Nc2ccc(F)c(Cl)c2)c1N (stereo not shown) [Example 80, N-((5-(5-Amino-4-((3-chloro-4-fluorophenyl)carbamoyl)-1-methyl-1H-pyrazol-3-yl)octahydropentalen-2-yl)methyl)-2-oxopiperidine-4-carboxamide] yielded an EC50 of 50 to 500 nM. Cn1nc(C2CC3CC(CNC(=O)CCCCCN)CC3C2)c(C(=O)Nc2ccc(F)c(Cl)c2)c1N (stereo not shown) [Example 81, 5-Amino-3-(5-((6-aminohexanamido)methyl)octahydropentalen-2-yl)-N-(3-chloro-4-fluorophenyl)-1-methyl-1H-pyrazole-4-carboxamide] was tested, and the EC50 was 50 to 500 nM. For Cn1nc(C2CC3CC(CNC(=O)COCCOCCN)CC3C2)c(C(=O)Nc2ccc(F)c(Cl)c2)c1N (stereo not shown) [Example 82, 5-Amino-3-(5-((2-(2-(2-aminoethoxy)ethoxy)acetamido)methyl)octahydropentalen-2-yl)-N-(3-chloro-4-fluorophenyl)-1-methyl-1H-pyrazole-4-carboxamide], the EC50 was 50 to 500 nM. Compound CNS(=O)(=O)NCC1CC2CC(c3nn(C)c(N)c3C(=O)Nc3ccc(F)c(Cl)c3)CC2C1 (stereo not shown) [Example 83, 5-Amino-N-(3-chloro-4-fluorophenyl)-1-methyl-3-(5-(((N-methylsulfamoyl)amino)methyl)octahydropentalen-2-yl)-1H-pyrazole-4-carboxamide] has an EC50 of under 10 nM. Cn1nc(C2CC3CC(CNS(=O)(=O)c4ccc(OC(F)(F)F)cc4)CC3C2)c(C(=O)Nc2ccc(F)c(Cl)c2)c1N (stereo not shown) [Example 84, 5-Amino-N-(3-chloro-4-fluorophenyl)-1-methyl-3-(5-(((4-(trifluoromethoxy)phenyl)sulfonamido)methyl)octahydropentalen-2-yl)-1H-pyrazole-4-carboxamide] gave an EC50 of 50 to 500 nM. Work on Cn1nc(C2CC3CC(CNS(=O)(=O)c4ccc(F)cc4F)CC3C2)c(C(=O)Nc2ccc(F)c(Cl)c2)c1N (stereo not shown) [Example 85, 5-Amino-N-(3-chloro-4-fluorophenyl)-3-(5-(((2,4-difluorophenyl)sulfonamido)methyl)octahydropentalen-2-yl)-1-methyl-1H-pyrazole-4-carboxamide] yielded an EC50 of under 10 nM. Cn1nc(C2CC3CC(CNS(=O)(=O)c4ccc(Cl)nc4)CC3C2)c(C(=O)Nc2ccc(F)c(Cl)c2)c1N (stereo not shown) [Example 86, 5-Amino-N-(3-chloro-4-fluorophenyl)-3-(5-(((6-chloropyridine)-3-sulfonamido)methyl)octahydropentalen-2-yl)-1-methyl-1H-pyrazole-4-carboxamide] showed an EC50 of under 10 nM. CCS(=O)(=O)NCC1CC2CC(c3nn(C)c(N)c3C(=O)Nc3ccc(F)c(Cl)c3)CC2C1 (stereo not shown) [Example 87, 5-Amino-N-(3-chloro-4-fluorophenyl)-3-(5-(ethylsulfonamidomethyl)octahydropentalen-2-yl)-1-methyl-1H-pyrazole-4-carboxamide] was tested, and the EC50 was under 10 nM. In the case of Cn1nc(C2CC3CC(CNS(C)(=O)=O)CC3C2)c(C(=O)Nc2ccc(F)c(Cl)c2)c1N (stereo not shown) [Example 88, 5-Amino-N-(3-chloro-4-fluorophenyl)-1-methyl-3-(5-(methylsulfonamidomethyl)octahydropentalen-2-yl)-1H-pyrazole-4-carboxamide], the EC50 is reported as under 10 nM. With CCCS(=O)(=O)NCC1CC2CC(c3nn(C)c(N)c3C(=O)Nc3ccc(F)c(Cl)c3)CC2C1 (stereo not shown) [Example 89, 5-Amino-N-(3-chloro-4-fluorophenyl)-1-methyl-3-(5-(propylsulfonamidomethyl)octahydropentalen-2-yl)-1H-pyrazole-4-carboxamide] the EC50 was under 10 nM. Work on CC(C)S(=O)(=O)NCC1CC2CC(c3nn(C)c(N)c3C(=O)Nc3ccc(F)c(Cl)c3)CC2C1 (stereo not shown) [Example 90, 5-Amino-N-(3-chloro-4-fluorophenyl)-1-methyl-3-(5-(((1-methylethyl)sulfonamido)methyl)octahydropentalen-2-yl)-1H-pyrazole-4-carboxamide] yielded an EC50 of under 10 nM. With Cn1nc(C2CC3CC(CNS(=O)(=O)C4CCC4)CC3C2)c(C(=O)Nc2ccc(F)c(Cl)c2)c1N (stereo not shown) [Example 91, 5-Amino-N-(3-chloro-4-fluorophenyl)-3-(5-(cyclobutanesulfonamidomethyl)octahydropentalen-2-yl)-1-methyl-1H-pyrazole-4-carboxamide] the EC50 was 10 to 50 nM. In the case of Cn1nc(C2CC3CC(CNS(=O)(=O)C4CCCC4)CC3C2)c(C(=O)Nc2ccc(F)c(Cl)c2)c1N (stereo not shown) [Example 92, 5-Amino-N-(3-chloro-4-fluorophenyl)-3-(5-(cyclopentanesulfonamidomethyl)octahydropentalen-2-yl)-1-methyl-1H-pyrazole-4-carboxamide], the EC50 is reported as 10 to 50 nM. For Cn1nc(C2CC3CC(CNS(=O)(=O)C(F)(F)F)CC3C2)c(C(=O)Nc2ccc(F)c(Cl)c2)c1N (stereo not shown) [Example 93, 5-Amino-N-(3-chloro-4-fluorophenyl)-1-methyl-3-(5-(((trifluoromethyl)sulfonamido)methyl)octahydropentalen-2-yl)-1H-pyrazole-4-carboxamide], the EC50 was 10 to 50 nM. In the case of Cn1nc(C2CC3CC(CNS(=O)(=O)C4CC4)CC3C2)c(C(=O)Nc2ccc(F)c(Cl)c2)c1N (stereo not shown) [Example 94, 5-Amino-N-(3-chloro-4-fluorophenyl)-3-(5-(cyclopropanesulfonamidomethyl)octahydropentalen-2-yl)-1-methyl-1H-pyrazole-4-carboxamide], the EC50 is reported as under 10 nM. Compound Cn1nc(C2CC3CC(CNS(=O)(=O)C4(C)CC4)CC3C2)c(C(=O)Nc2ccc(F)c(Cl)c2)c1N (stereo not drawn) [Example 95, 5-Amino-N-(3-chloro-4-fluorophenyl)-1-methyl-3-(5-(((1-methylcyclopropane)-l-sulfonamido)methyl)octahydropentalen-2-yl)-1H-pyrazole-4-carboxamide] has an EC50 of under 10 nM. Cn1nc(C2CC3CC(CNS(=O)(=O)C4CCOCC4)CC3C2)c(C(=O)Nc2ccc(F)c(Cl)c2)c1N (stereo not shown) [Example 96, 5-Amino-N-(3-chloro-4-fluorophenyl)-1-methyl-3-(5-(((tetrahydro-2H-pyran)-4-sulfonamido)methyl)octahydropentalen-2-yl)-1H-pyrazole-4-carboxamide] was tested, and the EC50 was under 10 nM. Compound Cn1nc(C2CC3CC(CNS(=O)(=O)C4CCS(=O)(=O)CC4)CC3C2)c(C(=O)Nc2ccc(F)c(Cl)c2)c1N (stereo not shown) [Example 97, 5-Amino-N-(3-chloro-4-fluorophenyl)-3-(5-(((1,1-dioxidotetrahydro-2H-thiopyran)-4-sulfonamido)methyl)octahydropentalen-2-yl)-1-methyl-1H-pyrazole-4-carboxamide] has an EC50 of 10 to 50 nM. Work on CC(C(F)(F)F)S(=O)(=O)NCC1CC2CC(c3nn(C)c(N)c3C(=O)Nc3ccc(F)c(Cl)c3)CC2C1 (stereo not shown) [Example 98, 5-Amino-N-(3-chloro-4-fluorophenyl)-1-methyl-3-(5-(((2,2,2-trifluoro-1-methylethyl)sulfonamido)methyl)octahydropentalen-2-yl)-1H-pyrazole-4-carboxamide] yielded an EC50 of 10 to 50 nM. In the case of C[C@@H](NC1CC2CC(c3nn(C)c(N)c3C(=O)Nc3ccc(F)c(Cl)c3)CC2C1)C(F)(F)F (stereo partly drawn) [Example 99, 5-Amino-N-(3-chloro-4-fluorophenyl)-1-methyl-3-(5-(((R)-1,1,1-trifluoropropan-2-yl)amino)octahydropentalen-2-yl)-1H-pyrazole-4-carboxamide], the EC50 is reported as 10 to 50 nM. In the case of C[C@H](NC1CC2CC(c3nn(C)c(N)c3C(=O)Nc3ccc(F)c(Cl)c3)CC2C1)C(F)(F)F (stereo partly drawn) [Example 100, 5-Amino-N-(3-chloro-4-fluorophenyl)-1-methyl-3-(5-(((S)-1,1,1-trifluoropropan-2-yl)amino)octahydropentalen-2-yl)-1H-pyrazole-4-carboxamide], the EC50 is reported as 10 to 50 nM. Compound Cn1nc(C2CC3CC4(CNC(=O)N4)CC3C2)c(C(=O)Nc2ccc(F)c(Cl)c2)c1N (stereo not shown) [Example 114, 5-Amino-N-(3-chloro-4-fluorophenyl)-1-methyl-3-(2-oxohexahydro-1′H-spiro[imidazolidine-4,2′-pentalen]-5′-yl)-1H-pyrazole-4-carboxamide] has an EC50 of 50 to 500 nM. For Cn1nc(C2CC3CC4(CC3C2)NC(=O)NC4=O)c(C(=O)Nc2ccc(F)c(Cl)c2)c1N (stereo not shown) [Example 116, 5-Amino-N-(3-chloro-4-fluorophenyl)-3-(2,5-dioxohexahydro-1′H-spiro[imidazolidine-4,2′-pentalen]-5′-yl)-1-methyl-1H-pyrazole-4-carboxamide], the EC50 was 50 to 500 nM. In the case of Cn1nc(C2CC3CN(C4COC4)CC3C2)c(C(=O)Nc2ccc(F)c(Cl)c2)c1N (stereo not shown) [Example 117, 5-Amino-N-(3-chloro-4-fluorophenyl)-1-methyl-3-(2-(oxetan-3-yl)octahydrocyclopenta[c]pyrrol-5-yl)-1H-pyrazole-4-carboxamide], the EC50 is reported as 50 to 500 nM. Cn1nc(C2CC3CN(C(=O)OC4CC(F)(F)C4)CC3C2)c(C(=O)Nc2ccc(F)c(Cl)c2)c1N (stereo not shown) [Example 118, 3,3-Difluorocyclobutyl 5-(5-amino-4-((3-chloro-4-fluorophenyl)carbamoyl)-1-methyl-1H-pyrazol-3-yl)hexahydrocyclopenta[c]pyrrole-2(1H)-carboxylate] gave an EC50 of 50 to 500 nM.
